Legend:
C-KIT = C-KIT (Homo sapiens, UniProt P10721); experiment: Kinase inhibition assay (LANCE or HTRF); format: biochemical; conditions: ATP at Km
Experimental: (§1) The IC50 values were determined by measuring phosphorylation of peptide substrate poly at ATP concentrations at the Km.

MERTK = MERTK (Homo sapiens, UniProt Q12866); experiment: Kinase inhibition assay (LANCE or HTRF); format: biochemical; conditions: ATP at Km
Experimental: as §1

EphA6 = EphA6 (Homo sapiens, UniProt Q9UF33); experiment: Kinase inhibition assay (LANCE or HTRF); format: biochemical; conditions: ATP at Km
Experimental: as §1

EphA8 = EphA8 (Homo sapiens, UniProt P29322); experiment: Kinase inhibition assay (LANCE or HTRF); format: biochemical; conditions: ATP at Km
Experimental: as §1

TXK = TXK (Homo sapiens, UniProt P42681); experiment: Kinase inhibition assay (LANCE or HTRF); format: biochemical; conditions: ATP at Km
Experimental: as §1

VEGFR2 = VEGFR2 (Homo sapiens, UniProt P35968); experiment: Kinase inhibition assay (LANCE or HTRF); format: biochemical; conditions: ATP at Km
Experimental: as §1

FLT4 = FLT4 (Homo sapiens, UniProt P35916); experiment: Kinase inhibition assay (LANCE or HTRF); format: biochemical; conditions: ATP at Km
Experimental: as §1

FRK = FRK (Homo sapiens, UniProt P42685); experiment: Kinase inhibition assay (LANCE or HTRF); format: biochemical; conditions: ATP at Km
Experimental: as §1

HIPK4 = HIPK4 (Homo sapiens, UniProt Q8NE63); experiment: Kinase inhibition assay (LANCE or HTRF); format: biochemical; conditions: ATP at Km
Experimental: as §1

ITK = ITK (Homo sapiens, UniProt Q08881); experiment: Kinase inhibition assay (LANCE or HTRF); format: biochemical; conditions: ATP at Km
Experimental: as §1

Fes = Fes (Homo sapiens, UniProt P07332); experiment: Kinase inhibition assay (LANCE or HTRF); format: biochemical; conditions: ATP at Km
Experimental: as §1

Fer = Fer (Homo sapiens, UniProt P16591); experiment: Kinase inhibition assay (LANCE or HTRF); format: biochemical; conditions: ATP at Km
Experimental: as §1

Fgr = Fgr (Homo sapiens, UniProt P09769); experiment: Kinase inhibition assay (LANCE or HTRF); format: biochemical; conditions: ATP at Km
Experimental: as §1

FLT1 = FLT1 (Homo sapiens, UniProt P17948); experiment: Kinase inhibition assay (LANCE or HTRF); format: biochemical; conditions: ATP at Km
Experimental: as §1

MNK2 = MNK2 (Homo sapiens, UniProt Q9HBH9); experiment: Kinase inhibition assay (LANCE or HTRF); format: biochemical; conditions: ATP at Km
Experimental: as §1

PDGFRα = PDGFRα (Homo sapiens, UniProt P16234); experiment: Kinase inhibition assay (LANCE or HTRF); format: biochemical; conditions: ATP at Km
Experimental: as §1

RET = RET (Homo sapiens, UniProt P07949); experiment: Kinase inhibition assay (LANCE or HTRF); format: biochemical; conditions: ATP at Km
Experimental: as §1

LnyA = LnyA (Homo sapiens, UniProt P07948); experiment: Kinase inhibition assay (LANCE or HTRF); format: biochemical; conditions: ATP at Km
Experimental: as §1

MLK = experiment: Kinase inhibition assay (LANCE or HTRF); format: biochemical, human; conditions: ATP at Km
Experimental: as §1

AXL = AXL (Homo sapiens, UniProt P30530); experiment: cell-based
Experimental: Phosphorylation of the receptors MET, AXL, VEGFR2, and FLT3 was assessed in the transgenic human MKN45 gastric tumor cell line overexpressing MET, mouse embryonic fibroblasts (MEFs) expressing full-length human AXL (AXL-MEFs), human umbilical vein endothelial cells (HUVECs) […], and MEFs expressing full-length human FLT3 (FLT3-wt-MEFs), respectively. […] Then, HUVECs and FLT3-wt-MEFs were stimulated with the ligands VEGF-A (100 ng/ml, for 3 min) and FLT3-ligand (50 ng/ml, for 5 min). MKN45 (overexpressing MET) and AXL-MEFs cells had no stimulation. Cells treated with staurosporine (AXL, FLT3-wt, c-Kit, FLT3, TIE2, VEGF-R2; [1,0E-05 M]) or BMS777607 (MET; [1,0E-06 M]) or sunitinib (VEGF-R3; [1,0E-06 M]) or crizotinib (RON; [1,0E-05 M] were defined as low control (n = 8). The median value of those wells represented the background and was set to 0%. Cells treated with solvent alone were defined as high control (n = 8). The median value of those wells was set to 100%. Test sample-treated cells as well as high and low control were stimulated in identical manner. Quantification of receptor tyrosine kinase autophosphorylation was assessed in 96-well plates via sandwich ELISA using a receptor specific capture antibody and an anti-phosphotyrosine detection antibody. […]

HUVECs = experiment: Endothelial cell tubule formation assay, HGF-induced; format: cell-based; conditions: Homo sapiens, HUVEC, HGF 45 ng/ml, 8 hours
Text: Then, after staining with Calcein AM (ThermoFisher, CA, USA), images of tubule formation were captured, and the total tube area was quantified with ImageXpress HCS (Molecular Devices, CA, USA).

MKN45 = experiment: Cell proliferation assay (CellTiter-Glo, 72 hours); format: cell-based; conditions: Homo sapiens, MKN-45, read-out: IC50 anti-proliferative
Experimental: Human gastric tumor cell lines with high MET expression levels, namely, the GTL-16, MKN45, SNU638, Hs746T, SNU-620, and SNU-5 cell lines, were used in the assay. […] Cell viability was measured after 72 hours using a CellTiter-Glo Luminescent Cell Viability Assay Kit (Promega, WI, USA) according to the manufacturer’s instructions.

HS746T = experiment: Cell proliferation assay (CellTiter-Glo, 72 hours); format: cell-based; conditions: Homo sapiens, read-out: IC50 anti-proliferative
Experimental: (§2) Human gastric tumor cell lines with high MET expression levels, namely, the GTL-16, MKN45, SNU638, Hs746T, SNU-620, and SNU-5 cell lines, were used in the assay. These cell lines were obtained from American Type Culture Collection (ATCC), Japanese Collection of Research Bioresources (JCRB), Shanghai Institutes of Biological Sciences, CAS (SIBS), Korean Cell Line Bank (KCLB) or National Institutes of Health (NIH). […] Cell viability was measured after 72 hours using a CellTiter-Glo Luminescent Cell Viability Assay Kit (Promega, WI, USA) according to the manufacturer’s instructions.

SNU-484 = experiment: Cell proliferation assay (CellTiter-Glo, 72 hours); format: cell-based; conditions: Homo sapiens, read-out: IC50 anti-proliferative
AZ521 = experiment: Cell proliferation assay (CellTiter-Glo, 72 hours); format: cell-based; conditions: Homo sapiens, AZ-521, read-out: IC50 anti-proliferative
NCI-N87 = experiment: Cell proliferation assay (CellTiter-Glo, 72 hours); format: cell-based; conditions: Homo sapiens, read-out: IC50 anti-proliferative
Experimental: (§3) These cell lines were obtained from American Type Culture Collection (ATCC), Japanese Collection of Research Bioresources (JCRB), Shanghai Institutes of Biological Sciences, CAS (SIBS), Korean Cell Line Bank (KCLB) or National Institutes of Health (NIH). […] Cell viability was measured after 72 hours using a CellTiter-Glo Luminescent Cell Viability Assay Kit (Promega, WI, USA) according to the manufacturer’s instructions.

KATOIII = experiment: Cell proliferation assay (CellTiter-Glo, 72 hours); format: cell-based; conditions: Homo sapiens, KATO III, read-out: IC50 anti-proliferative
Experimental: as §3

NUGC3 = experiment: Cell proliferation assay (CellTiter-Glo, 72 hours); format: cell-based; conditions: Homo sapiens, NUGC-3, read-out: IC50 anti-proliferative
Experimental: as §2

[1] = molecular target: KinomeScan panel of 95 kinase binding assays; experiment: KinomeScan kinase binding assay, panel of 95 kinase assays; conditions: 10 μM single concentration
Experimental: KinomeScan kinase binding assays were performed as described in reports i.
%Ctrl Calculation: [test compound signal-positive control signalnegative control signal-positive control signal]?100
test compound = compound submitted by Calitor; negative control = DMSO (100%Ctrl); positive control = control compound (0%Ctrl).

FLT3 = FLT3 (Homo sapiens, UniProt P36888); experiment: Cellular kinase phosphorylation assay (sandwich ELISA), FLT3-wt-MEFs, FLT3-ligand stimulated; format: cell-based; parameters: MEFs expressing full-length human FLT3 (FLT3-wt-MEFs); expressed in transfected cells; host or cells: mouse embryonic fibroblasts (MEFs); conditions: FLT3-ligand 50 ng/ml
Experimental: Phosphorylation of the receptors MET, AXL, VEGFR2, and FLT3 was assessed in the transgenic human MKN45 gastric tumor cell line overexpressing MET, mouse embryonic fibroblasts (MEFs) expressing full-length human AXL (AXL-MEFs), human umbilical vein endothelial cells (HUVECs) overexpressing VEGFR-2, and MEFs expressing full-length human FLT3 (FLT3-wt-MEFs), respectively. […] Then, HUVECs and FLT3-wt-MEFs were stimulated with the ligands VEGF-A (100 ng/ml, for 3 min) and FLT3-ligand (50 ng/ml, for 5 min). MKN45 (overexpressing MET) and AXL-MEFs cells had no stimulation. […] Raw data were converted into percent substrate phosphorylation relative to high controls, which were set to 100%.

Sequence of ITK (Q08881 whole entry): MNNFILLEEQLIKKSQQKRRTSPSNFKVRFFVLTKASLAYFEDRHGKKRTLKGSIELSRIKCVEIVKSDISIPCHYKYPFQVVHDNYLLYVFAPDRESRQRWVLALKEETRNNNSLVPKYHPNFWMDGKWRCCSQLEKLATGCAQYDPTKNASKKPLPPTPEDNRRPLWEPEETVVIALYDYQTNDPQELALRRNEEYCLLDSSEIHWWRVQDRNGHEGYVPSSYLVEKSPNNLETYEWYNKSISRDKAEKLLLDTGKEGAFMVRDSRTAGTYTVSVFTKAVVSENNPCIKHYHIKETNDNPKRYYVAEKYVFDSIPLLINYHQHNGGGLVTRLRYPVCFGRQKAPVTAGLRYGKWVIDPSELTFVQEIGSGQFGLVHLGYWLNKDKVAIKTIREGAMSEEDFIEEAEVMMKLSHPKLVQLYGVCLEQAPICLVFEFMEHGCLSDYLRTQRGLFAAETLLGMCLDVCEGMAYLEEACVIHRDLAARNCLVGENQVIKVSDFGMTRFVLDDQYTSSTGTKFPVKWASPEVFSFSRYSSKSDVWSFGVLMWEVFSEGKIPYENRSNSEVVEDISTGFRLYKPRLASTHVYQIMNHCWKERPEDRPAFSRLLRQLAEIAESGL
Sequence of EphA8 (P29322 28-1005): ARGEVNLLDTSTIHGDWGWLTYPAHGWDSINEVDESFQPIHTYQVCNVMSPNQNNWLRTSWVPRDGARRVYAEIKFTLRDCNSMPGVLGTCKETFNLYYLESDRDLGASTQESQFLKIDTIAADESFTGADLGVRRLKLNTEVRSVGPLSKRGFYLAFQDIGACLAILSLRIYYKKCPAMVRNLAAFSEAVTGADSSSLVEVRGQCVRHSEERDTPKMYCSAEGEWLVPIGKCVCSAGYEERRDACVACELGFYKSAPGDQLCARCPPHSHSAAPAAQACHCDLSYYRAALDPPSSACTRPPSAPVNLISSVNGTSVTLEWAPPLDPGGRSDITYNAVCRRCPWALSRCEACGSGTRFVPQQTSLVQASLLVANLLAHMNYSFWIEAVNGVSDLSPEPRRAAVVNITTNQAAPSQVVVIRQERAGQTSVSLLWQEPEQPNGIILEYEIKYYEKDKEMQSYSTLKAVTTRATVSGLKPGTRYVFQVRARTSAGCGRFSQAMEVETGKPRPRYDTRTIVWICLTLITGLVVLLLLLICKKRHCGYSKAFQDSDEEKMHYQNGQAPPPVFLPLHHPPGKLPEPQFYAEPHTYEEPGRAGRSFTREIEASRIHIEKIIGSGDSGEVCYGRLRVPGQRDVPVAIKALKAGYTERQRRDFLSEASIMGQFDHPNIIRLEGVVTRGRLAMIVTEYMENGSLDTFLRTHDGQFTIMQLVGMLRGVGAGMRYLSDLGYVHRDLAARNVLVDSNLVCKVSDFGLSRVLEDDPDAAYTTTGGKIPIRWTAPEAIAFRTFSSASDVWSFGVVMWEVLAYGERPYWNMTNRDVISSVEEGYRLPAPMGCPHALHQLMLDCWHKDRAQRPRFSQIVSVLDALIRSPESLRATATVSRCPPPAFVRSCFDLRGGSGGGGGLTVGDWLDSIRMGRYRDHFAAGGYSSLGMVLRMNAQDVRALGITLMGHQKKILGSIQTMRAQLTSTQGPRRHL
Sequence of AXL (P30530 26-894): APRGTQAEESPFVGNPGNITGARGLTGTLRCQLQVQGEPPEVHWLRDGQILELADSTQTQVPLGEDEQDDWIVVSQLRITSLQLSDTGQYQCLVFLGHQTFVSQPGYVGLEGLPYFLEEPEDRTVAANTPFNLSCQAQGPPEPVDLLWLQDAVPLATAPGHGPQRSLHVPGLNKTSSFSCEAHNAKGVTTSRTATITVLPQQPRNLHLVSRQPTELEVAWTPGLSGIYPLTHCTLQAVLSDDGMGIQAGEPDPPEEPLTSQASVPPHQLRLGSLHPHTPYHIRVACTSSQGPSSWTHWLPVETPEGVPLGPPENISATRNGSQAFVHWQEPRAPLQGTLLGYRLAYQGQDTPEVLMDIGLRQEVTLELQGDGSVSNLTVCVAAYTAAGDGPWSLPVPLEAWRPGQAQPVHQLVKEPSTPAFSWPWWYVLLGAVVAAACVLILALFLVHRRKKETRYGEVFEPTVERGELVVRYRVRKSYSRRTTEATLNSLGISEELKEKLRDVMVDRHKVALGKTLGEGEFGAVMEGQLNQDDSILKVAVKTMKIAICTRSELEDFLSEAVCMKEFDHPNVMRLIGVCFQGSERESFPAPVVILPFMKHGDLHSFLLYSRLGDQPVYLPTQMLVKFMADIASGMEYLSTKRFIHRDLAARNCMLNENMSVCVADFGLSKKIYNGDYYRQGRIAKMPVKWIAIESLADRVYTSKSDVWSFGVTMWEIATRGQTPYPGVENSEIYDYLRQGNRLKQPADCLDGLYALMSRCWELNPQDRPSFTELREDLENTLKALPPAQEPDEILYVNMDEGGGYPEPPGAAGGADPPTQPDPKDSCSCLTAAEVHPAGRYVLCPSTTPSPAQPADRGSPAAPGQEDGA
Sequence of Fer (P16591 whole entry): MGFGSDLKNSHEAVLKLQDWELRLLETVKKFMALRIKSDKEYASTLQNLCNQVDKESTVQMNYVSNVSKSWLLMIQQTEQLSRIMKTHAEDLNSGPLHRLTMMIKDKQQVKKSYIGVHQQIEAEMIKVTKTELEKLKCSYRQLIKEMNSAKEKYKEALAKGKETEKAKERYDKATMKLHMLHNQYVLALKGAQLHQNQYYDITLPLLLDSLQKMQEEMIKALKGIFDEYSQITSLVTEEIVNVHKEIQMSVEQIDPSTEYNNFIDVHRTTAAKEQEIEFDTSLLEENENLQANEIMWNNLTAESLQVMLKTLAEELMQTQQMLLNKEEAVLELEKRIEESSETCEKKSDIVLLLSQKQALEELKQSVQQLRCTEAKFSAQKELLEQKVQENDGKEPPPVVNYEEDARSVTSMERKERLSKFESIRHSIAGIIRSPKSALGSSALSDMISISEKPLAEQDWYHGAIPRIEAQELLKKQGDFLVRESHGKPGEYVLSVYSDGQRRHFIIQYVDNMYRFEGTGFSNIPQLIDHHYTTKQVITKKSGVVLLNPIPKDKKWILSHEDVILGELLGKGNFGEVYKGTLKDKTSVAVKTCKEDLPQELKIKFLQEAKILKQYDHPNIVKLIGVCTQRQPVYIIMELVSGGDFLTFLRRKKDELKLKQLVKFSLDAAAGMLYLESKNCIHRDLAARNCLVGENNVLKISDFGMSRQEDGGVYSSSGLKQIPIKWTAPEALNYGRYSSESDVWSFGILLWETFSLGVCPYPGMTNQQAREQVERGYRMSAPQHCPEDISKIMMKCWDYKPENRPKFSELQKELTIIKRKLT
Sequence of Fgr (P09769 whole entry): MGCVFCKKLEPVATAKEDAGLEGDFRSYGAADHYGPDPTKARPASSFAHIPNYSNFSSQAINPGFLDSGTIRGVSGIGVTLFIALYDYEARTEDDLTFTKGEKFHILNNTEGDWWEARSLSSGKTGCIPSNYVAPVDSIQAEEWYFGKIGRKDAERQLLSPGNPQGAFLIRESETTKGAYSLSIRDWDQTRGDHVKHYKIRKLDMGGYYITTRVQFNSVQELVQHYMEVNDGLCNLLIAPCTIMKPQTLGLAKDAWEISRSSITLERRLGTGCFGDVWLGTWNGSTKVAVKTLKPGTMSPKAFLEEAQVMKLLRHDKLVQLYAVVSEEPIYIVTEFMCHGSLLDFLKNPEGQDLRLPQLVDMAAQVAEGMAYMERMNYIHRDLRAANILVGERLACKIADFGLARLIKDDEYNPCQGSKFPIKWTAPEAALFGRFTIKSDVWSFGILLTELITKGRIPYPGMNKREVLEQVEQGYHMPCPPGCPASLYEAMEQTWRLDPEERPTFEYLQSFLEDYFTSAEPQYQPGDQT
Sequence of HIPK4 (Q8NE63 whole entry): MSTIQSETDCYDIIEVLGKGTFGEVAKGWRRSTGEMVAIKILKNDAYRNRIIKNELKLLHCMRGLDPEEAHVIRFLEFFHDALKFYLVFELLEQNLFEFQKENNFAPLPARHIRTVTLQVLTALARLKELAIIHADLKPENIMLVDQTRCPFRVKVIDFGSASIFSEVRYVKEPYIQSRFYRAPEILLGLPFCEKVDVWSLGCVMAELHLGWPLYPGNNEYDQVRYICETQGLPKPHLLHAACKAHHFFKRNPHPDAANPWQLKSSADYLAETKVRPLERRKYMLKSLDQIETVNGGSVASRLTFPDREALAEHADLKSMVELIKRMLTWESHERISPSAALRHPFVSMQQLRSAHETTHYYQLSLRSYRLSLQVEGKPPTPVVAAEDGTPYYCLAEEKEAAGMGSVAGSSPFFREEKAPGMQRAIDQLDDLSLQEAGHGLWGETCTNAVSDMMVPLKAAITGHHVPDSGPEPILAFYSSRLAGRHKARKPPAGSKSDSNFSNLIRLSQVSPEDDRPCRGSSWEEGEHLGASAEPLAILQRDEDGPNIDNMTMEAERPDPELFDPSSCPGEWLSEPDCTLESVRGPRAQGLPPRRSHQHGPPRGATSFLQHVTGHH
Sequence of TXK (P42681 whole entry): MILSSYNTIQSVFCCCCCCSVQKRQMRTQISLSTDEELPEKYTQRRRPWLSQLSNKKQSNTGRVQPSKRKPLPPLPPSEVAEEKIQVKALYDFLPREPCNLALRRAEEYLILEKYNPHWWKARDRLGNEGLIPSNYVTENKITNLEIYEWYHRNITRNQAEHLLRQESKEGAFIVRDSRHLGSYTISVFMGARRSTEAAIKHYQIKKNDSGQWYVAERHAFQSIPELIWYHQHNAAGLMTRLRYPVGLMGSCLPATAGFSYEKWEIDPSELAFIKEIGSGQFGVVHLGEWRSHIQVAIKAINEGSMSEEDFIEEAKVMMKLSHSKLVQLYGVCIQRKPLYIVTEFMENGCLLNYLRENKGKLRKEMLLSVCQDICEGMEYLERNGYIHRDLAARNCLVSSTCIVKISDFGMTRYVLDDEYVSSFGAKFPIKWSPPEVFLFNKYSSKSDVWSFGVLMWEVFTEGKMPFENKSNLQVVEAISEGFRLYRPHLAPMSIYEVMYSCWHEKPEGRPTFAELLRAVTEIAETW

What does the source list for `Cc1c(C(=O)Nc2ccc(Oc3ccnc4cc(OCC(C)(C)O)ccc34)c(F)c2)c(=O)n(-c2ccccc2)n1C` [CT053]?
IC50 (C-KIT): 960 nM; IC50 (MERTK): 14 nM; IC50 (EphA6): 81 nM; IC50 (EphA8): 620 nM; IC50 (TXK): 270 nM; IC50 (VEGFR2): 46 nM; IC50 (FLT4): 46 nM; IC50 (FRK): 520 nM; IC50 (HIPK4): 180 nM; IC50 (ITK): 240 nM; IC50 (Fes): 48 nM; IC50 (Fer): 330 nM; IC50 (Fgr): 77 nM; IC50 (FLT1): 6100 nM; IC50 (MNK2): 55 nM; IC50 (PDGFRα): 390 nM; IC50 (RET): 200 nM; IC50 (LnyA): 240 nM; IC50 (MLK): 160 nM; IC50 (AXL): 0.44 nM; IC50 (HUVECs; read-out: IC50, percentage area of tube formation (+ HGF)): 310 nM; IC90 (HUVECs; read-out: IC90, Tube Area % Effect (+ HGF)): > 3000 nM; IC50 (MKN45): 100 nM; IC50 (HS746T): 140 nM; IC50 (SNU-484): 8500 nM; IC50 (AZ521): > 10000 nM; IC50 (NCI-N87): > 10000 nM; IC50 (KATOIII): > 10000 nM; IC50 (NUGC3): > 10000 nM; kinase interaction pattern [1]: highly specific; IC50 (FLT3): 1.5 nM
